Data as given in patent US9255272B2, “Use of inhibitors of leukotriene B4 receptor BLT2 for treating asthma” (Korea University Research & Business Foundation, priority 2007, dated 2016).

Columns and labels:
BLT2 mRNA = BLT2 mRNA in Rat2-BLT2 stable cells (RT-PCR); format: cell-based; conditions: transient transfection, 24 h
Procedure: Suppressed BLT2 expression level was determined by RT-PCR. Rat2-BI_T2 stable cells were plated at a density of 5×10^4 cells/plate on 6 well plates. After 24 hr, cells were transiently transfected with BLT2 specific antisense and sense oligonucleotide plasmid with Lipofectamin reagent and then incubated in fresh DMEM supplemented with 10% FBS for an additional 24 h. After additional incubation, the transfected cells were harvested for BLT2 transcripts analysis. Total RNA was reverse-transcribed and PCR amplify were performed with BLT2 forward primer: 5′-[…]-3′ (SEQ ID NO: 23) and reverse primer: 5′-[…]-3′ (SEQ ID NO: 24). Non-transfected Rat2-BLT2 stable cells cDNA was used the negative control and GAPDH was shown as internal control.

ROS = ROS levels in BAL fluid cells (DCF fluorescence, FACS); format: in vivo, mouse; conditions: 1.6 mg/kg i.v. 24 hr and 1 hr before 10% OVA; BAL fluid 48 h after challenge
Procedure: (§1) Female BALB/c mice and C57BL/6 mice (7 weeks old; 18-20 g) were obtained from Orientbion Inc. (Seoungnam, Korea). Sensitization and challenge were carried out as described previously with some modification (28). Briefly, female C57BL/6 mice (7 weeks old; 18-20 g) were immunized by intraperitoneal (i.p.) injection of 200 μg ovalbumin (OVA) emulsified in 2.5 mg of adjuvant aluminum hydroperoxide gel (alum) (Pierce, Rockford, Ill.). A second i.p. injection of 20 μg OVA adsorbed onto alum (2.5 mg) was administered 10 days later. After an additional 10 days, mice were exposed to an aerosol of 1% OVA in saline for 30 min daily on 3 consecutive days. On day 25, mice were finally challenged by provocation with 10% OVA aerosol. For inhibition experiments, sense or antisense BLT2 (1.6 mg/kg) was injected intravenously 24 h and then 1 h before the 10% OVA challenge. The mice were then killed on day 27 to assess asthmatic phenotypes. Antisense BLT2 oligonucleotide (5′-[…]-3′ (SEQ ID NO: 15)), sense BLT2 oligonucleotide (5′-[…]-3′ (SEQ ID NO: 16)).
ROS levels in BAL fluids were measured as a function of DCF fluorescence as described previously (30). […] DCF fluorescence was excited at 488 nm and the evoked emission was filtered with a 515-nm long-pass filter. […]

OVA-challenged mice = assay: Eosinophil infiltration in BAL fluid of OVA-challenged mice; format: in vivo, mouse; conditions: C57BL/6 mice, 1.6 mg/kg i.v. 24 hr and 1 hr before 10% OVA challenge, 48 hr
Procedure: as §1
Inflammatory cells in the BAL fluid were collected by centrifugation (1,000 g for 3 min) and washed once in PBS. Cells were counted using a hemocytometer, and viability was assessed by trypan blue exclusion. […]

Rac = assay: Endogenous Rac expression in lung tissue (Western blot); format: in vivo, mouse; conditions: oligonucleotides injected into tail veins, mice sacrificed after 12 hr
Description: FIGS. 10a and 10b show activation of Rac in the lung tissue by OVA provocation and inhibition of endogenous Rac expression by antisense Rac oligonucleotide treatment. Lung samples were homogenized with micropestle and washed with PBS twice. FIG. 10a depicts Western blot analysis of Rac expression in mouse model of asthma. For membrane protein preparation, cells were suspended in Buffer A and cells were ruptured by passing through 21-G syringe. After ultracentrifugation, protein samples in pelleted membrane fraction were dissolved with buffer A containing 1% Triton X-100. FIG. 10b depicts Western blot analysis of Rac expression in mouse model of asthma administered with asRac. For whole cell lysate preparation, cells from the lung tissues of buffer, control Rac oligonucleotide or antisense Rac oligonucleotide injected mice were suspended with lysis buffer and incubated for 20 min. After centrifugation of the samples, protein quantification was carried out using Bradford reagent and Western blot analysis was performed.
Oligonucleotides, from Genotech Co. (Korea), were synthesized with a phosphorothioate backbone to improve the resistance to endonuclease. The antisense oligonucleotide consisted of 17 nucleotides analogues to the 5′ end of the murine Rac mRNA sequence, which spans the translation initiation site. […]

BLT2 antisense oligonucleotide: BLT2 specific antisense oligonucleotide plasmid transfected into Rat2-BLT2 stable cells (antisense CAGCAGTGTCTCGTT; listed as DNA, chemistry not given here)
level of BLT2 mRNA by RT-PCR (BLT2 mRNA): reduced

sense BLT2: sense BLT2 oligonucleotide 5′-GGAATGAGACACTACTGAGC-3′ (SEQ ID NO: 16) (listed as DNA, chemistry not given here) [reference compound]
effect on ROS levels in BAL fluid (in words) (ROS): not | effect on eosinophil infiltration in BAL fluids (in words) (OVA-challenged mice): no inhibitory effect

control Rac: control oligonucleotide of same nucleotide composition, 5′-GATCAGTGCACACAGTG-3′ (SEQ ID NO: 21) (listed as DNA, chemistry not given here) [reference compound]
endogenous expression of Rac in the lung tissues (Rac): didn't show significant effect
